According to patent US20130236416A1, “SURFACE MODIFIED COLLOIDAL PARTICLES” (CLEMSON UNIVERSITY, priority 2012, published 2013):
Where “and” joins values, the source holds several entries; their conditions need not be identical. Identical values can stand only once. Like-named read-outs stand apart in the source and are kept apart here.

Assays:
[1] = Relative fluorescence quantum yield versus reference dye HITCI in methanol; format: physicochemical
Method: Absorption spectra were taken using a Perkin-Elmer Lambda 900 UV/VIS/NIR spectrophotometer. Photoluminescence (PL) spectra were collected using a Thermo Oriel xenon arc lamp (Thermo Oriel 66 902) mated with a Thermo Oriel Cornerstone 7 400 1/8m monochromator (Thermo Oriel 7400) and a Horiba Jobin-Yvon MicroHR spectrometer coupled to a Synapse CCD detector. Quantum yields (φ) of the dyes and modified particles were determined relative to the reference dye 1,10,3,3,30,30-hexamethylindotricarbocyanine iodide (HITCI) in methanol, which has a fluorescence quantum yield of φref=0.12, [51,20] employing established procedures.

CARDO complex = target: T1, CARDO complex (Metapseudomonas resinovorans, UniProt Q8G8B6); assay: Temperature dependence of 9H-carbazole conversion by purified CARDO complex; format: biochemical, Pseudomonas resinovorans CA10; settings: 5° C.
T1 construct: (HIS)6 (C); made in house; host or cells: Escherichia coli BL21(DE3) Rosetta
T1 sequence (Q8G8B6 whole entry, one chain of several): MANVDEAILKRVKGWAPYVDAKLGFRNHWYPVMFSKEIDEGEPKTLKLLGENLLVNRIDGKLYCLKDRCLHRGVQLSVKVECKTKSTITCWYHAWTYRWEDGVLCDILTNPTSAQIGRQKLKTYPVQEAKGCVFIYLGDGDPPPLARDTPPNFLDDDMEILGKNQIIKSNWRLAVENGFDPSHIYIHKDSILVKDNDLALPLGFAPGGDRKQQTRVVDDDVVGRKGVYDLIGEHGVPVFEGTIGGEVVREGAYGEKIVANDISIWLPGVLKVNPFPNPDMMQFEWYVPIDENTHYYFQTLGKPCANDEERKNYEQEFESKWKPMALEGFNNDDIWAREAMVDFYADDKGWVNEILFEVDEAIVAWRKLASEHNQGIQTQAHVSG
Method: Purified CARDO complex activity was monitored using a modified enzymatic assay previously described [H. Nojiri, et al. Structure of the terminal oxygenase component of angular dioxygenase, carbazole 1,9a-dioxygenase. Journal of Molecular Biology, 351(2):355-370, 2005.]. The purified enzymes CARDO-F, CARDO-O and CARDO-R were incubated in 20 μL Buffer D (25 mM Tris-HCl pH 7.5 and 1 mM NADH) containing 1 mM carbazole dissolved in DMSO at varying temperatures from 30° C. to 5° C. An aliquot was removed from the reaction at the indicated times and the absorbance of the reaction was determined with a NanoDrop spectrophotometer (Thermo Scientific) at 295 nm.

P. resinovorans CA10 = assay: Proliferation of P. resinovorans CA10 on carbazole-based media; format: cell-based, Pseudomonas resinovorans CA10; settings: 96 hour incubation
Method: Control growth performed with glucose medium (Δ).
The bioavailability of the hydrophobic metabolites is also critical to understanding metabolic enzymes that bind to them[40]. […] FIG. 3 presents the proliferation of P. resinovorans CA10 with both 9H-carbazole and PA/AC particle based media during a 96 hour incubation.

[2] = cited from earlier work

CC1(C)C(/C=C/C=C/C=C/C=C2/N(CCCN=[N+]=[N-])c3ccc4ccccc4c3C2(C)C)=[N+](CCCCS(=O)(=O)[O-])c2ccc3ccccc3c21 [azICG, 4-(2-(1E,3E,5E,7E)-7-[3-(3-Azidopropyl)-1,1-Dimethyl-1,3-Dihydro-2H-Benzo[e]Indol-2-Ylidene]-1,3,5-Heptatrienyl-1,1-Dimethyl-1H-Benzo[e]Indolium-3-yl)-1-Butanesulfonate]
relative fluorescence quantum yield φ [1]: 0.044±0.004 and 0.044

c1ccc2c(c1)[nH]c1ccccc12 [9H-carbazole]
conversion of carbazole by purified CARDO complex (CARDO complex): significantly retarded | growth of P. resinovorans CA10 on the substrate-based medium (P. resinovorans CA10): consistent growth

CN1C(=CC=CC=CC=CC2=[N+](C)c3ccccc3C2(C)C)C(C)(C)c2ccccc21.[I-] [HITCI, 1,10,3,3,30,30-hexamethylindotricarbocyanine iodide]
fluorescence quantum yield φref ([2]; reference dye in methanol): 0.12

CC1(C)C(/C=C/C=C/C=C/C=C2\N(CCCCS(=O)(=O)O)c3ccc4ccccc4c3C2(C)C)=[N+](CCCCS(=O)(=O)[O-])c2ccc3ccccc3c21 [ICG, Indocyanine green]
relative fluorescence quantum yield φ [1]: 0.036±0.002 | yield of triplet formation through S1-T1 intersystem-crossing ([2]; free ICG in an aqueous albumin solution): 11% | yield of triplet formation through S1-T1 intersystem-crossing ([2]; free ICG in water): 14% | fluorescence quantum yield of free ICG in water ([2]; water, ICG concentration ca. 2.7×10^−3 mol·dm^−3): ca. 4×10^−5
